Source: ChEMBL document CHEMBL6153065, “Heterologous Expression and Characterization of Estercin A, a Class II Lanthipeptide Derived from Clostridium estertheticum CF016, with Antimicrobial Activity against Clinically Relevant Pathogens” (2025)
In brackets after ≈: the same amount, converted by molar mass. Activity calls are given as the source filed them. The calls are words filed in the database; no cut-off is given here. *1 amine or outer side, *2 acyl side, *3 side chain or, on linkers, in order; H or OH if unused. Where a SMILES comes first, the peptide text is derived from it. Bridges are numbered along the chain shown (N, C = ends). [ ]: non-standard residue; d: D form. X1 = O=C([C@@H](N[*:1])[C@H](O)C[*:3])[*:2]; Abu(4-yl) = O=C([C@H](CC[*:3])N[*:1])[*:2]

Key:
Bacillus cereus [1] = assay: Antibacterial activity against Bacillus cereus ATCC14579 assessed as inhibition of bacterial growth at 1 mg/ml incubated for 16 hrs by agar well diffusion assay relative to control; type: functional
Staphylococcus aureus [2] = assay: Antibacterial activity against Staphylococcus aureus LMG15975 assessed as inhibition of bacterial growth at 1 mg/ml incubated for 16 hrs by agar well diffusion assay relative to control; type: functional
Lactococcus lactis [3] = assay: Antibacterial activity against Lactococcus lactis MG1363 assessed as inhibition of bacterial growth at 1 mg/ml incubated for 16 hrs by agar well diffusion assay relative to control; type: functional
Clostridium perfringens = assay: Antibacterial activity against Clostridium perfringens CECT376 assessed as bacterial growth inhibition incubated for 18 hrs by Mueller-Hinton broth based doubling dilution method; type: functional
Lactococcus lactis [4] = assay: Antibacterial activity against Lactococcus lactis MG1363 assessed as bacterial growth inhibition incubated for 18 hrs by Mueller-Hinton broth based doubling dilution method; type: functional
Listeria monocytogenes = assay: Antibacterial activity against Listeria monocytogenes LMG10470 assessed as bacterial growth inhibition incubated for 18 hrs by Mueller-Hinton broth based doubling dilution method; type: functional
Staphylococcus aureus [5] = assay: Antibacterial activity against Staphylococcus aureus LMG10147 assessed as bacterial growth inhibition incubated for 18 hrs by Mueller-Hinton broth based doubling dilution method; type: functional
Staphylococcus aureus [6] = assay: Antibacterial activity against methicillin-resistant Staphylococcus aureus LMG15975 assessed as bacterial growth inhibition incubated for 18 hrs by Mueller-Hinton broth based doubling dilution method; type: functional
Enterococcus faecalis = assay: Antibacterial activity against vancomycin-resistant Enterococcus faecalis LMG16216 assessed as bacterial growth inhibition incubated for 18 hrs by Mueller-Hinton broth based doubling dilution method; type: functional
Enterococcus faecium = assay: Antibacterial activity against vancomycin-resistant Enterococcus faecium LMG16003 assessed as bacterial growth inhibition incubated for 18 hrs by Mueller-Hinton broth based doubling dilution method; type: functional
Bacillus cereus [7] = assay: Antibacterial activity against Bacillus cereus ATCC14579 assessed as bacterial growth inhibition incubated for 18 hrs by Mueller-Hinton broth based doubling dilution method; type: functional
Clostridium botulinum = assay: Antibacterial activity against Clostridium botulinum CECT551 assessed as bacterial growth inhibition incubated for 18 hrs by Mueller-Hinton broth based doubling dilution method; type: functional
Clostridium tetani = assay: Antibacterial activity against Clostridium tetani CECT4629 assessed as bacterial growth inhibition incubated for 18 hrs by Mueller-Hinton broth based doubling dilution method; type: functional
Lactococcus lactis [8] = assay: Antibacterial activity against Lactococcus lactis MG1363 assessed as bacterial death at 10 times of MIC by time killing assay; type: functional, organism-based
Lactococcus lactis [9] = assay: Binding affinity to Lactococcus lactis MG1363 lipid II at 8 ug by Spot-on-lawn assay; details: dose 8.0 µg
Cell membrane = assay: Induction of membrane permeabilization in Lactococcus lactis MG1363 assessed as pore forming ability by measuring increase in red fluorescence at 2 times MIC measured after 15 mins by SYTO-9 Green dye/red PI staining based fluorescence microscopy; type: subcellular
Lactococcus lactis [10] = assay: Antibacterial activity against Lactococcus lactis MG1363 at 1 mg/ml incubated under 22 degreeC for 4 hrs; type: functional, organism-based
Lactococcus lactis [11] = assay: Antibacterial activity against Lactococcus lactis MG1363 at 1 mg/ml incubated under 55 degreeC for 4 hrs; type: functional, organism-based
Lactococcus lactis [12] = assay: Antibacterial activity against Lactococcus lactis MG1363 at 1 mg/ml incubated at pH 2 for 4 hrs; type: functional, organism-based
Lactococcus lactis [13] = assay: Antibacterial activity against Lactococcus lactis MG1363 at 1 mg/ml incubated at pH 4 for 4 hrs; type: functional, organism-based
Lactococcus lactis [14] = assay: Antibacterial activity against Lactococcus lactis MG1363 at 1 mg/ml incubated at pH 7 for 4 hrs; type: functional, organism-based
Lactococcus lactis [15] = assay: Antibacterial activity against Lactococcus lactis MG1363 at 1 mg/ml incubated for 2 hrs in presence of trypsin by agar plate method; type: functional, organism-based
Lactococcus lactis [16] = assay: Antibacterial activity against Lactococcus lactis MG1363 at 1 mg/ml incubated under 95 degreeC for 4 hrs; type: functional, organism-based
Lactococcus lactis [17] = assay: Antibacterial activity against Lactococcus lactis MG1363 at 1 mg/ml incubated at pH 10 for 4 hrs; type: functional, organism-based

`C=C1NC(=O)[C@H](C(C)C)NC(=O)[C@@H]2CSC[C@@H](C(=O)N[C@@H](CCCCN)C(=O)O)NC(=O)[C@H](CSC[C@H]3NC(=O)[C@H](Cc4ccccc4)NC(=O)[C@@H](NC(=O)[C@@H](NC(=O)[C@@H](NC(=O)[C@@H](NC(=O)CNC(=O)CNC(=O)CN)C(C)C)[C@@H](C)CC)[C@@H](C)O)CSC[C@@H](NC(=O)[C@H](CCC(=O)O)NC(=O)[C@H](Cc4c[nH]cn4)NC3=O)C(=O)N[C@@H](Cc3ccc(O)cc3)C(=O)N[C@@H](Cc3ccc(O)cc3)C(=O)N[C@@H](CC(N)=O)C(=O)N2)NC(=O)CNC(=O)[C@H](CO)NC(=O)[C@H](C)NC(=O)[C@@H]2CCCN2C1=O` was tested, and the Activity (Bacillus cereus [1]) was “inactive”, the Activity (Staphylococcus aureus [2]) was “inactive” and the Activity (Lactococcus lactis [3]) was “inactive”.

`CC[C@H](C)[C@H](NC(=O)[C@@H](NC(=O)[C@H](CCCCN)NC(=O)[C@H](CC(C)C)NC(=O)[C@@H](NC(=O)CNC(=O)[C@H](CC(N)=O)NC(=O)CN)C(C)C)[C@@H](C)O)C(=O)N[C@H]1CCSC[C@@H]2NC(=O)[C@@H](NC(=O)[C@H](Cc3ccccc3)NC(=O)[C@H](CC(C)C)NC(=O)[C@H](Cc3ccccc3)NC(=O)[C@H](CCC(N)=O)NC(=O)[C@H](Cc3c[nH]c4ccccc34)NC(=O)[C@H]([C@@H](C)O)NC(=O)[C@H](CC(N)=O)NC(=O)[C@H](CCSC)NC(=O)[C@H](CC(N)=O)NC(=O)[C@H](CS)NC(=O)[C@H](CCC(=O)O)NC(=O)[C@H](Cc3c[nH]cn3)NC1=O)[C@H](O)CSC[C@@H](C(=O)O)NC2=O` (H-GNGVLKTI[Abu(4-yl)]HECNMNTWQFLF[X1]CC-OH; thioether 9-23, 22-24) gave an MIC (Clostridium perfringens) of 75 µg/mL (≈ 27.4 µM).

For `C=C1NC(=O)[C@H](C(C)C)NC(=O)[C@@H]2CSC[C@@H](C(=O)N[C@@H](CCCCN)C(=O)O)NC(=O)[C@H](CSC[C@@H]3NC(=O)[C@H](Cc4ccccc4)NC(=O)[C@@H](NC(=O)[C@@H](NC(=O)[C@@H](NC(=O)[C@@H](NC(=O)CNC(=O)CNC(=O)CN)C(C)C)[C@@H](C)CC)[C@@H](C)O)CSC[C@H](NC(=O)[C@H](CCC(=O)O)NC(=O)[C@H](Cc4c[nH]cn4)NC3=O)C(=O)N[C@@H](Cc3ccc(O)cc3)C(=O)N[C@@H](Cc3ccc(O)cc3)C(=O)N[C@@H](CC(N)=O)C(=O)N2)NC(=O)CNC(=O)CNC(=O)[C@H](Cc2c[nH]c3ccccc23)NC(=O)[C@H](CO)NC(=O)[C@H](C)NC(=O)[C@@H]2CCCN2C1=O`, the MIC (Lactococcus lactis [4]) was 4 µg/mL (≈ 1.47 µM), the MIC (Listeria monocytogenes) was over 64 µg/mL and the MIC (Staphylococcus aureus [5]) was 16 µg/mL (≈ 5.87 µM). For the same compound, the MIC (Staphylococcus aureus [6]) was 4 µg/mL (≈ 1.47 µM), the MIC (Enterococcus faecalis) was 64 µg/mL (≈ 23.5 µM) and the MIC (Enterococcus faecium) was 64 µg/mL (≈ 23.5 µM). The MIC (Bacillus cereus [7]) was 8 µg/mL (≈ 2.94 µM), the MIC (Clostridium botulinum) was 32 µg/mL (≈ 11.7 µM) and the MIC (Clostridium perfringens) was 1 µg/mL (≈ 0.367 µM). The MIC (Clostridium tetani) was 4 µg/mL (≈ 1.47 µM), the Activity (Lactococcus lactis [8]) was “Not active; Slower Rate Of Killing Observed” and the Activity (Lactococcus lactis [9]) was “Active”. For the same compound, the Activity (Cell membrane) was “Not active; Only Green Fluorescence Observed”, the Activity (Lactococcus lactis [10]) was “inactive” and the Activity (Lactococcus lactis [11]) was “inactive”. For the same compound, the Activity (Lactococcus lactis [12]) was “Active”, the Activity (Lactococcus lactis [13]) was “Active” and the Activity (Lactococcus lactis [14]) was “Active”. The Activity (Lactococcus lactis [15]) was “Active; More Resistant Compared To Nisin”, the Activity (Bacillus cereus [1]) was 100% and the Activity (Staphylococcus aureus [2]) was 100%. The Activity (Lactococcus lactis [3]) was 100%, the Activity (Lactococcus lactis [16]) was “Not active; Less Than 30% Reduction In Activity Observed Relative To Control” and the Activity (Lactococcus lactis [17]) was “Active”.
